According to patent US20050214285A1, “Epitopes or mimotopes derived from the C-epsilon-3 or C-epsilon-4 domains of IgE, antagonists thereof, and their therapeutic uses” (SmithKline Beecham Biologicals, s.a. and Peptide …, priority 1999, published 2005):
Values joined by “and” are separate entries in the source; they are usually repeats but may differ in a detail not shown here. Equal entries are not always repeated. Blank lines part the entries; values can stand above or below the molecule they belong to. Positions of bridges follow the written chain, without caps; N, C: chain ends. Residues, ends and D or L forms follow the SMILES beside them. No end group written: not given here.

How the values were obtained:
human chimaeric IgE = test: IgE plate bound ELISA: anti-human IgE reactivity in mouse serum; assay type: in vivo; settings: for anti-IgE antibody response when presented on carriers: in vivo
Description: ELISA plates are coated with human chimaeric IgE at 1 μg/ml in pH 9.6 carbonate/bicarbonate coating buffer for 1 hour at 37° C. or overnight at 4° C. Non-specific binding sites are blocked with PBS/0.05% Tween-20 containing 5% w/v Marvel milk powder for 1 hour at 37° C. […] Polyclonal serum binding is detected with goat anti-mouse IgG-Biotin (1/2000) followed by Streptavidin-HRP (1/1000). Conjugated antibody is detected with TMB substrate at 450nm. A standard curve of PTmAb0011 is included on each plate so that the anti-IgE reactivity in serum samples can be calculated in μg/ml.
(§1) The conjugates comprising the mimotope P15 (25 μg protein/dose), described in 1.4, were administered into groups of 10 BalbC mice, adjuvanted with and oil in water emulsion containing QS21 and 3D-MPL described in WO 95/17210 . Boosting was be performed on day 21 and on day 42 and sera can be harvested on day 42 and 56. The immune response anti-peptide and anti-plate bound IgE was followed using methods described in Example 1.
The mice were bled after the last immunisation and tested for anti-IgE reactivity in the IgE plate bound ELISA. The individual, average (Av), geomean (GM), results are summarised below (SD=standard deviation).
These vaccines were administered into groups of 10 BalbC mice, and boosting was be performed on day 14 and on day 28 and sera was harvested on day 42. The immune response to anti-plate bound IgE and receptor orientated IgE, was then followed using the techniques described in example 1.4. Also, the activity of the antiserum in the inhibition of histamine release from allergic basophils was measured in the techniques described in 1.5.

biotinylated peptide = test: Anti-peptide ELISA of sera from immunised mice; assay type: in vivo, BalbC mice; settings: for Anti peptide immune responses, Mid point titres, Av / Anti peptide immune responses, Mid point titres, GM / Anti peptide immune responses/mouse, Mid point titres, mouse 1 / Anti peptide immune responses/mouse, Mid point titres, mouse 2 / Anti peptide immune responses/mouse, Mid point titres, mouse 3 / Anti peptide immune responses/mouse, Mid point titres, mouse 4 / Anti peptide immune responses/mouse, Mid point titres, mouse 5 / Anti peptide immune responses/mouse, Mid point titres, mouse 6 / Anti peptide immune responses/mouse, Mid point titres, mouse 7 / Anti peptide immune responses/mouse, Mid point titres, mouse 8 / Anti peptide immune responses/mouse, Mid point titres, mouse 9 / Anti peptide immune responses/mouse, Mid point titres, mouse 10: conjugated to BSA, 14 days after third vaccination; for Anti peptide immune responses, Mid point titres, Av: average; for Anti peptide immune responses, Mid point titres, GM: geomean
Description: The anti-peptide and anti-carrier immune responses were investigated using an ELISA technique outlined below. Microtiterplates (Nunc) are coated with the specific antigen in PBS (4° overnight) with either: Streptavidin at 2 μg/ml (followed by incubation with biotinylated peptide (1 μM) for 1 hour at 37° C.), Wash 3×PBS-Tween 20 0.1%. Saturate plates with PBS-BSA 1%-Tween 20 0.1% (Sat buffer) for 1 hr at 37°. Add 1° antibody=sera in two-step dilution (in Sat buffer), incubate 1 hr 30 minutes at 37°. Wash 3×. Add 2° anti-mouse Ig (or anti-mouse isotype specific monoclonal antibody) coupled to HRP. Incubate 1 hr at 370. Wash 5×. Reveal with TMB (BioRad) for 10 minutes at room temperature in the dark. Block reaction with 0.4N H2SO4.
as §1

[1] = system: basophils from freshly harvested peripheral blood from allergic patients
Description: Several dilutions of complete sera or IgG purified from conjugate immunised mice can be tested in presence of basophils from freshly harvested peripheral blood from allergic patients.

PTmAb0011 [2] = test: Phage display ranking of peptide ligands for PTmAb0011; assay type: binding, mouse; settings: for Rank (ECL) PTmAb0011: primary phage display biopannings (Table 7)
Description: (§2) Phage display libraries were used to map the binding sites of the monoclonal antibodies using three different phage libraries, displaying either the XCX15, XCX10 or XAX10 peptide sequence (where X is any amino acid) at the N-terminus of the phage gVIIIp. Tables 6 and 7 show the results of selecting for peptide ligands with the anti human IgE monoclonal antibodies […]. […]
(§3) This involved a DNA sub-cloning transfer from the major coat protein (gVIIIp) filamentous phage display vector to a lower copy number minor phage coat protein (gIIIp) display vector with a random PCR step. […] Included in the tables are ranking orders and also BIAcore affinities where available.

PTmAb0011 [3] = test: BIAcore affinity to PTmAb0011; assay type: binding, mouse; settings: read-out: PTmAb BIAcore KD^Rel (μM) PTmAb0011
Description: as §3
(§4) Thus indicating the importance of correct presentation of the peptides of the present invention to adopt a shape which closely resembles the native target in the context of the whole IgE molecule. [drawing]

PTmAb0005 [4] = test: BIAcore affinity to PTmAb0005; assay type: binding; settings: read-out: PTmAb BIAcore KD^Rel (μM) PTmAb0005
Description: as §3, §4

allergic human basophils = test: Histamine release inhibition from allergic human basophils; assay type: cell-based; settings: antiserum of an individual immunised mouse, dilution 1/30
Description: Blocking activity of anti-P15 antibodies in the antiserum was evaluated by the measuring of the inhibition of the histamine release induced by the allergen. Histamine release and inhibition was measured as described in example 3. As P15 is a mimotope of P1, PTmAb0011 was used as a control as it is known to bind to the same epitope (P1).

human IgE = test: Immunisation of mice with peptide expressing phage; assay type: in vivo, mouse; settings: peptide expressing phage used as immunogen
PTmAb0005 [5] = test: Phage display ranking of peptide ligands for PTmAb0005; assay type: binding
Description: as §2
This was performed by introducing random mutations by PCR mutagenesis and sub-cloning into the Fuse 5 vector for minor filamentous phage protein gIIIp display. These, and other results, confirmed the importance of the amino acids within IgEC67 which aligned with the Cε2 epitope. […] Mutations in other sites had little effect on the affinity to PTmAb0005.
as §3

Cε2-4 = target: T1, Cε2-4 (human, UniProt P01854-1 106-428); test: ELISA, graded
T1 construct: also called WT cε2-4; cε2-4 fragment

[6] = BalbC mice, 25 μg protein/dose, day 14 post third vaccination

T1 sequence (P01854 other isoform, or with tags, fused parts or gaps limits assumed): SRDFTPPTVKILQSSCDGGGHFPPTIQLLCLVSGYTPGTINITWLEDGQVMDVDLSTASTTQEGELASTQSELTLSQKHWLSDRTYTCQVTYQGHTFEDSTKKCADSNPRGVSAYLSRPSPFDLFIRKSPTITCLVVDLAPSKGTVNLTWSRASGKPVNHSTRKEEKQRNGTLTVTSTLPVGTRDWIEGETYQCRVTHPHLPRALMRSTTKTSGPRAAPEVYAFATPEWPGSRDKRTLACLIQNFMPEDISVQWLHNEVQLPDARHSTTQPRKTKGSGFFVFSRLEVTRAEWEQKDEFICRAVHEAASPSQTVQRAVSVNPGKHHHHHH

Kd (PTmAb0011 [3]): 42 µM
Kd (PTmAb0005 [4]): > 1000 µM
Molecule: CC(C)C[C@@H]1NC(=O)[C@H](CC(=O)O)NC(=O)CNC(=O)[C@H](CCC(=O)O)NC(=O)[C@H](CCCNC(=N)N)NC(=O)[C@@H]2CCCN2C(=O)[C@H](Cc2ccccc2)NC(=O)[C@H](C)NC(=O)[C@@H]2CCCN2C(=O)[C@@H](NC(=O)[C@@H](N)CO)CSSC[C@@H](C(=O)N[C@@H](C)C(=O)N2CCC[C@H]2C(=O)N2CCC[C@H]2C(=O)N[C@H](C(=O)N[C@H](C(=O)O)C(C)C)[C@@H](C)O)NC1=O [EEC131] (H-SCPAFPREGDLCAPPTV-OH; disulfide 2-12)
Rank (ECL) PTmAb0011 (PTmAb0011 [2]): 910

Kd (PTmAb0011 [3]): 117 µM
Kd (PTmAb0005 [4]): > 600 µM
Molecule: DALDERAWRARA [EEB33]
Rank (ECL) PTmAb0011 (PTmAb0011 [2]): 15

The remaining lines, values behind:

Molecule: CSTTQEGELA-NH2 [Peptide P16]
anti-IgE antibody response when presented on carriers (human chimaeric IgE): strong anti-IgE antibody responses
Anti peptide immune responses, Mid point titres, Av (biotinylated peptide): 1882
Anti peptide immune responses, Mid point titres, GM (biotinylated peptide): 1478
Anti peptide immune responses/mouse, Mid point titres, mouse 1 (biotinylated peptide): 1891
Anti peptide immune responses/mouse, Mid point titres, mouse 2 (biotinylated peptide): 649
Anti peptide immune responses/mouse, Mid point titres, mouse 3 (biotinylated peptide): 1299
Anti peptide immune responses/mouse, Mid point titres, mouse 4 (biotinylated peptide): 2349
Anti peptide immune responses/mouse, Mid point titres, mouse 5 (biotinylated peptide): 591
Anti peptide immune responses/mouse, Mid point titres, mouse 6 (biotinylated peptide): 1474
Anti peptide immune responses/mouse, Mid point titres, mouse 7 (biotinylated peptide): 4605
Anti peptide immune responses/mouse, Mid point titres, mouse 8 (biotinylated peptide): 918
Anti peptide immune responses/mouse, Mid point titres, mouse 9 (biotinylated peptide): 4177
Anti peptide immune responses/mouse, Mid point titres, mouse 10 (biotinylated peptide): 865
anaphylactogenicity of the induced antiserum [1]: non anaphylactogenic

Molecule: CSQKHWLSDRT-NH2 [Peptide P17]
anti-IgE antibody response when presented on carriers (human chimaeric IgE): strong anti-IgE antibody responses
Anti peptide immune responses, Mid point titres, Av (biotinylated peptide): 5446
Anti peptide immune responses, Mid point titres, GM (biotinylated peptide): 4656
Anti peptide immune responses/mouse, Mid point titres, mouse 1 (biotinylated peptide): 100
Anti peptide immune responses/mouse, Mid point titres, mouse 2 (biotinylated peptide): 4349
Anti peptide immune responses/mouse, Mid point titres, mouse 3 (biotinylated peptide): 2850
Anti peptide immune responses/mouse, Mid point titres, mouse 4 (biotinylated peptide): 3434
Anti peptide immune responses/mouse, Mid point titres, mouse 5 (biotinylated peptide): 6133
Anti peptide immune responses/mouse, Mid point titres, mouse 6 (biotinylated peptide): 2231
Anti peptide immune responses/mouse, Mid point titres, mouse 7 (biotinylated peptide): 5085
Anti peptide immune responses/mouse, Mid point titres, mouse 8 (biotinylated peptide): 2991
Anti peptide immune responses/mouse, Mid point titres, mouse 9 (biotinylated peptide): 13070
Anti peptide immune responses/mouse, Mid point titres, mouse 10 (biotinylated peptide): 8874
anaphylactogenicity of the induced antiserum [1]: non anaphylactogenic

Molecule: P15-BSA: P15 (CLEDGQVMDVDLL) conjugated to BSA (CLEDGQVMDVDLL-NH2; also: conjugated to BSA) [Peptide P15-BSA]
Anti-IgE responses (μg/ml (PTmAb0011)) Average (human chimaeric IgE; [6]): 2.2 µg/mL
Anti-IgE responses (μg/ml (PTmAb0011)) Geomean (human chimaeric IgE; [6]): 1.0 µg/mL
% inhibition of histamine release (allergic human basophils): 67% and 57%
Anti-peptide responses (Mid point titre) Average (biotinylated peptide; [6]): 49591
Anti-peptide responses (Mid point titre) Geomean (biotinylated peptide; [6]): 48719
anaphylactogenicity of the induced antiserum [1]: Neither antiserum generated with P15-BSA or P15-PD was shown to be anaphylactogenic

Molecule: DCDWINPPDPPHFWKDT [EEC2/23/44/132]
Rank (ECL) PTmAb0011 (PTmAb0011 [2]): 33
Kd (PTmAb0011 [3]): 7 µM
Kd (PTmAb0005 [4]): > 600 µM

Molecule: CC[C@H](C)[C@@H]1NC(=O)[C@H](Cc2ccccc2)NC(=O)[C@@H](N)CSSC[C@@H](C(=O)N2CCC[C@H]2C(=O)N[C@@H](CCCNC(=N)N)C(=O)N[C@@H](CCC(=O)O)C(=O)O)NC(=O)[C@H](CC(C)C)NC(=O)[C@H](CCC(=O)O)NC(=O)[C@H](CC(C)C)NC(=O)[C@H](CC(=O)O)NC(=O)[C@H](C)NC(=O)[C@H](CCSC)NC(=O)[C@H](CCC(N)=O)NC(=O)[C@H](CCCCN)NC(=O)[C@H](CC(N)=O)NC1=O [IgEC67-8] (H-CFINKQMADLELCPRE-OH; disulfide 1-13)
PTmAb Rank 0011 (PTmAb0011 [2]; IgEC67 mutants (Table 8)): 2.4
Kd (PTmAb0011 [3]): 0.066 µM
Kd (PTmAb0005 [4]): 0.0094 µM
anti-human IgE response in mice (human IgE): capable of inducing an anti-human IgE response in mice
Rel. Rank A (PTmAb0005 [5]; IgEC67-8 mutants (Table 9)): 1.00
Rel. Rank B (PTmAb0005 [5]; IgEC67-8 mutants (Table 9)): 1.00
PTmAb Rank 0005 (PTmAb0005 [5]; IgEC67 mutants (Table 8)): 4.36

Molecule: CC[C@H](C)[C@H](NC(=O)[C@@H]1CSSC[C@H](NC(=O)[C@@H](N)CCCNC(=N)N)C(=O)N[C@@H](CCC(=O)O)C(=O)N[C@@H](CCC(=O)O)C(=O)N[C@@H](Cc2c[nH]c3ccccc23)C(=O)N[C@@H](CC(C)C)C(=O)N1)C(=O)N1CCC[C@H]1C(=O)N1CCC[C@H]1C(=O)N[C@@H](C)C(=O)N1CCC[C@H]1C(=O)N[C@@H](C)C(=O)N[C@@H](Cc1ccccc1)C(=O)N[C@@H](C)C(=O)N1CCC[C@H]1C(=O)N1CCC[C@H]1C(=O)O [EEC21/19] (H-RCEEWLCIPPAPAFAPP-OH; disulfide 2-7)
Rank (ECL) PTmAb0011 (PTmAb0011 [2]): 3
Kd (PTmAb0011 [3]): 27.8 µM
Kd (PTmAb0005 [4]): 14.9 µM

B1: recombinant FcεRIα ectodomain (receptor, UniProt P12319 26-205, looked up)
chain: VPQKPKVSLNPPWNRIFKGENVTLTCNGNNFFEVSSTKWFHNGSLSEETNSSLNIVNAKFEDSGEYKCQHQQVNESEPVYLEVFSDWLLLQASAEVVMEGQPLFLRCHGWRNWDVYKVIYYKDGEALKYWYENHNISITNATVEDSGTYYCTGKVWQLDYESEPLNITVIKAPREKYWLQ
notes: extracellular domain; also called FcεR1α ectodomain; FcεR1α
binding result (Cε2-4): binds
